Article PMC5599584, “Kinetic adaptation of human Myo19 for active mitochondrial transport to growing filopodia tips” (Scientific Reports, 2017)

Experiments:
Acto·Myo19-3IQ [1] = molecular target: T1, Acto·Myo19-3IQ (Homo sapiens, UniProt Q96H55); test: biochemical
Myo19-3IQ [2] = molecular target: T2, Myo19-3IQ (Homo sapiens, UniProt Q96H55); assay type: biochemical; details: no actin; 250 µM ATP (initial)
T2 construct: with Calmodulin

Acto·Myo19-3IQ [3] = molecular target: T1, Acto·Myo19-3IQ; test: stopped-flow mant FRET, association kinetics; assay type: binding; design: with Calmodulin; Actin, alpha skeletal muscle (rabbit or chicken skeletal muscle F-actin); details: KMg50 buffer pH 7.3, 25 °C; bound to F-actin; labelled compound
Myo19-3IQ [4] = molecular target: T2, Myo19-3IQ; test: stopped-flow mant FRET / single turnover; assay type: binding; details: read-out: K 1T
[5] = molecular target: F-actin (actin filaments from rabbit or chicken skeletal muscle) (rabbit or chicken) (UniProt P68135)

T2 sequence (Q96H55 whole entry, looked up): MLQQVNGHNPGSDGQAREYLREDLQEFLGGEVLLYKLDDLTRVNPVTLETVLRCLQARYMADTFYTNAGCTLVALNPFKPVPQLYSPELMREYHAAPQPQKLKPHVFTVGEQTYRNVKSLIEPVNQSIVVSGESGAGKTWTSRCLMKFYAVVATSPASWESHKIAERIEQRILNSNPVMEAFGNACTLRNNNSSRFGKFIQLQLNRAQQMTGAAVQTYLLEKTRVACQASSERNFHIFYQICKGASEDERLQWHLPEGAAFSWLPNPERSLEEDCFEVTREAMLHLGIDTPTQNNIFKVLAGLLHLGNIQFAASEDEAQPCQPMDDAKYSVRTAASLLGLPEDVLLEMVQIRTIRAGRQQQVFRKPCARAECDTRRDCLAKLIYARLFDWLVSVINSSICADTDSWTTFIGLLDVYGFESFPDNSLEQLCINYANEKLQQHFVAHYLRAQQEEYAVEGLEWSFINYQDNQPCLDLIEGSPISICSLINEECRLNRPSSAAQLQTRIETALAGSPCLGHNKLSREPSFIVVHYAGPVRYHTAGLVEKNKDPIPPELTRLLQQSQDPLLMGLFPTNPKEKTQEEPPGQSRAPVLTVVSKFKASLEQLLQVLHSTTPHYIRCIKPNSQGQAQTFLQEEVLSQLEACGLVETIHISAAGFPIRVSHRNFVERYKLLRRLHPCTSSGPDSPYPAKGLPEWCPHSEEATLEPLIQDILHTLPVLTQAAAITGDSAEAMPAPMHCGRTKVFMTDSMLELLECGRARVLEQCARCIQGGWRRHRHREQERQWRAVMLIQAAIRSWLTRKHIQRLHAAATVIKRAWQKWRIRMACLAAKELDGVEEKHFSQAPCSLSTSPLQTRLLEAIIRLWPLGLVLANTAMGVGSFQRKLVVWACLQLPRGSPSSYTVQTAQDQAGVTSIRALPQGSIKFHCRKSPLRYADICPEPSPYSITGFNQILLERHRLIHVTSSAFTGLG
T1 sequence (Q96H55 whole entry, looked up): as above

With `Nc1ncnc2c1ncn2[C@@H]1O[C@H](COP(=O)(O)OP(=O)(O)OP(=O)(O)O)[C@@H](O)[C@H]1O` [ATP] the Kd (Acto·Myo19-3IQ [1]) was 476 ± 116 µM and the “quenched-flow Pi burst; NADH-coupled ATPase” value (Myo19-3IQ [2]) was “Myo19-3IQ (in the absence of actin) mixed with ATP yielded a Pi burst amplitude”.
For `CNc1ccccc1C(=O)O[C@H]1C[C@H](n2cnc3c(N)ncnc32)O[C@@H]1COP(=O)(O)OP(=O)(O)OP(=O)(O)O` [mT], the “stopped-flow mant FRET, association kinetics” value (Acto·Myo19-3IQ [3]) was “mT bound similarly to Myo19-3IQ or Acto·Myo19-3IQ” and the Kd (Myo19-3IQ [4]) was about 0.04 µM.
With “Myo19-3IQ (human Myo19 motor domain with three IQ light chain-binding motifs, with its associated calmodulin light chain) (from UniProt P0DP23 1-149) (complex)” the K ATPase: actin concentration at the half maximal steady-state ATPase activity (NADH-coupled assay, 1-100 µM F-actin) [5] was 11.6 µM.
